This is an account of results in ChEMBL document CHEMBL1909046, “DrugMatrix in vitro pharmacology data”.

Assay [1] addresses T1, Alpha-1A adrenergic receptor (Rattus norvegicus, UniProt P43140).
T1 sequence (P43140 whole entry): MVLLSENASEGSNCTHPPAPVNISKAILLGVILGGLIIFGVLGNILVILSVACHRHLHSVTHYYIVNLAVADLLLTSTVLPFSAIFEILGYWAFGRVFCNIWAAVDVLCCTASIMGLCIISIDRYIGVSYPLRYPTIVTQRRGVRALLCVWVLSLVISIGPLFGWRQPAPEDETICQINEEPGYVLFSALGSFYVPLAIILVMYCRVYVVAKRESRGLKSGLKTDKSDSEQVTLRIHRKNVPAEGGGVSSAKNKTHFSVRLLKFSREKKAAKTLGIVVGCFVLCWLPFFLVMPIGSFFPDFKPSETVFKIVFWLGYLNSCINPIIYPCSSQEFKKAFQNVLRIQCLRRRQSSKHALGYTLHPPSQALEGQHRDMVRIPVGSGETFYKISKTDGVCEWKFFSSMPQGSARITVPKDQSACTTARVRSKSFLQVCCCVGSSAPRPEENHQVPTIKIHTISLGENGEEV
Description: DRUGMATRIX: Alpha-1A adrenergic receptor radioligand binding (ligand: prazosin). The assay is classed as cell membranes, Wistar, Submaxillary gland, Membrane. Particulars: Not Active = under 50% inhibition at 10 µM.

Assay [2] has as its target T2, Alpha-1B adrenergic receptor (Rattus norvegicus, UniProt P15823).
T2 sequence (P15823 whole entry): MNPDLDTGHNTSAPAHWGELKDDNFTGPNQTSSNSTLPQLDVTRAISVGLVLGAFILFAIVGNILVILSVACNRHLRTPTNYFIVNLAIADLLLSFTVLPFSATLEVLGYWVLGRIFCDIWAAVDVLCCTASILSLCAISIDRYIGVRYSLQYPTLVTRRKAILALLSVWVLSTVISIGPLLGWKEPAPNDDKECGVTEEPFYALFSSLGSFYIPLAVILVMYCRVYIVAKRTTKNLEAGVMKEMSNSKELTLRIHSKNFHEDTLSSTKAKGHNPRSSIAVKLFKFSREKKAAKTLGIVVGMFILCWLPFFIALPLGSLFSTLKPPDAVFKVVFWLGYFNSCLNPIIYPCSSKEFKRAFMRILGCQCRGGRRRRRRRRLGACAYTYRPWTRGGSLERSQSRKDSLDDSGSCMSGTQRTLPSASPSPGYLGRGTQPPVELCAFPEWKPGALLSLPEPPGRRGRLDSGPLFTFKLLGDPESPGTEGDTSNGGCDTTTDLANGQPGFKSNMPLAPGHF
The experiment in a line: DRUGMATRIX: Alpha-1B adrenergic receptor radioligand binding (ligand: prazosin). The assay is classed as cell membranes, Wistar, Liver, Membrane. The settings on record: Not Active = under 50% inhibition at 10 µM.

For assay [3], the target named is T3, Type-2 angiotensin II receptor (Homo sapiens, UniProt P50052). Further: in other assays of this panel Not Active means under 50% inhibition at 10 µM.
T3 sequence (P50052 whole entry): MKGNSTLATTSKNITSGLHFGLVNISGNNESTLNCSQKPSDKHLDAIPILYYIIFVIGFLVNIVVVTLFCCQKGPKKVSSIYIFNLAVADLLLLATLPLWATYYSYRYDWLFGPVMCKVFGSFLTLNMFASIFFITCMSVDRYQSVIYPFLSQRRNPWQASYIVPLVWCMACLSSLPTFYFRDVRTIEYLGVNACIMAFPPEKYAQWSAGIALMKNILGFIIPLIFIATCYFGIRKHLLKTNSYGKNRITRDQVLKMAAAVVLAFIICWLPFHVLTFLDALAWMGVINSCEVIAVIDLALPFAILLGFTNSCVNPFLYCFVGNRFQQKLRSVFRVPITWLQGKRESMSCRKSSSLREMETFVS
The assay is classed as cell-based. Particulars: cho-k1.

Assay [4] in a line: DRUGMATRIX: beta-Lactamase enzyme inhibition (substrate: Nitrocefin). On the set-up: species or system Bacillus cereus. Particulars: Not Active = under 50% inhibition at 10 µM.
A short description of assay [5]: DRUGMATRIX: Serotonin (5-Hydroxytryptamine) 5-HT3 radioligand binding (ligand: [3H] GR-65630). The assay is classed as cell membranes, Membrane. The settings on record: hek293; Not Active = under 50% inhibition at 10 µM.
In the next assay the target is Carbonic anhydrase 2 (Homo sapiens, UniProt P00918). The experiment in a line: DRUGMATRIX: Carbonic Anhydrase II enzyme inhibition (substrate: 4-Nitrophenyl acetate (4-NPA)). The assay is classed as tissue-based, Erythrocyte. Particulars: Not Active = under 50% inhibition at 10 µM.
Assay [6] has as its target Sodium-dependent dopamine transporter (Homo sapiens, UniProt Q01959). The experiment in a line: DRUGMATRIX: Dopamine Transporter radioligand binding (ligand: [125I] RTI-55). The format is cell membranes, CHO-K1, Membrane. The settings on record: cho-k1; Not Active = under 50% inhibition at 10 µM.
Assay [7] has as its target T4, Neuropeptide Y receptor type 1 (Homo sapiens, UniProt P25929). Further: in other assays of this panel Not Active means under 50% inhibition at 10 µM.
T4 sequence (P25929 whole entry): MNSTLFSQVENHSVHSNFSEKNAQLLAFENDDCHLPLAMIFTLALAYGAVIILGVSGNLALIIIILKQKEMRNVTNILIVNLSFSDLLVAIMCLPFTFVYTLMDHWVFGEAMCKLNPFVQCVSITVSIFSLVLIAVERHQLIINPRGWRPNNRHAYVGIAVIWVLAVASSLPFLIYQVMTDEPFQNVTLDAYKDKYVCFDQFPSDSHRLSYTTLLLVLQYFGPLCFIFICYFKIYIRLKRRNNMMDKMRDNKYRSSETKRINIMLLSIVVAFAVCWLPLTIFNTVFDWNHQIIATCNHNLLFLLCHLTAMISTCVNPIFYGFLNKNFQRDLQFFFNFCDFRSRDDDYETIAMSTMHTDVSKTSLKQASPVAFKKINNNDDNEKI
The assay is classed as cell membranes, Membrane. The settings on record: sk-n-mc.

A further assay addresses T5, Cathepsin G (Homo sapiens, UniProt P08311).
T5 sequence (P08311 whole entry): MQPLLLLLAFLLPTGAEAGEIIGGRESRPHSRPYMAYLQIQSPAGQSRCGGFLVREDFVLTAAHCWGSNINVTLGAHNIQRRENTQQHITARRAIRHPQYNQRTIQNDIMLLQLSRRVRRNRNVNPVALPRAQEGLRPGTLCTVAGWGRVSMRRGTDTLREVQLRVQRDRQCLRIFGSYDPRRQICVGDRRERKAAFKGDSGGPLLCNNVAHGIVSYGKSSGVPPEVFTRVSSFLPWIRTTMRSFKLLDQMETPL
The format is tissue-based. The settings on record: neutrophil.

Molecules are shown by their SMILES.

Sodium-dependent dopamine transporter, sequence (Q01959 whole entry): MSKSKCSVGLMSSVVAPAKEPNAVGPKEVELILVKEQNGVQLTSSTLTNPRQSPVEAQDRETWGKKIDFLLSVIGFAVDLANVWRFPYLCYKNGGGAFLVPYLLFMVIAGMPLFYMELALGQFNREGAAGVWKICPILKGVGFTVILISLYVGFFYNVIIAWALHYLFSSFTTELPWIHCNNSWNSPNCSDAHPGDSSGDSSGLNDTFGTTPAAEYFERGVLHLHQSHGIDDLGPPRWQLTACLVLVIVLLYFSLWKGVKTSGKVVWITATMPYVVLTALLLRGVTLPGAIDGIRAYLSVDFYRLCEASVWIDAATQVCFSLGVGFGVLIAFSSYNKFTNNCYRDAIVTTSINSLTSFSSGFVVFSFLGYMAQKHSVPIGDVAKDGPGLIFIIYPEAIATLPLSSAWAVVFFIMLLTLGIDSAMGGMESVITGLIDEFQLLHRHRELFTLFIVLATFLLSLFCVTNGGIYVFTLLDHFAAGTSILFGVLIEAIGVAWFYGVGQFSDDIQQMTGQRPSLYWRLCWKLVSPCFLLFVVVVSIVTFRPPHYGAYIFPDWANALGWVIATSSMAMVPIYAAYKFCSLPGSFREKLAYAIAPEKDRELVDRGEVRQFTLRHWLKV

In the case of `O=C1CCC(N2C(=O)c3ccccc3C2=O)C(=O)N1` (configuration not stated) [THALIDOMIDE], the half-maximal inhibitory concentration (IC50) entry (in [1]; in assay [2]; in assay [3]; in assay [4]; in assay [5]; on Carbonic anhydrase 2 (erythrocyte)) was “Not Active” throughout. For the same molecule, the IC50 entry (in [6]; in assay [7]; against Cathepsin G) was “Not Active” throughout. For the same molecule, the Ki entry in [4] and in [5] was “Not Active” in each case.
On to `Cc1cccc(Nc2ccncc2S(=O)(=O)NC(=O)NC(C)C)c1` [TORSEMIDE], for which the IC50 entry (in assay [1]; in [2]; in [3]; in [4]; in assay [5]; on Carbonic anhydrase 2 (erythrocyte)) was “Not Active” each time. Moreover, the IC50 entry (in assay [6]; in [7]; against Cathepsin G) was “Not Active” each time. Further, the Ki result in assay [4] and in assay [5] was “Not Active” in each case.
Regarding `CC(C)C[C@H](NC(=O)[C@@H](O)[C@H](N)Cc1ccccc1)C(=O)O` [UBENIMEX], the IC50 entry (in assay [1]; in assay [2]; in assay [3]; in assay [4]; in assay [5]; on Carbonic anhydrase 2 (erythrocyte)) was “Not Active” each time. Further, the concentration for half-maximal inhibition (IC50) entry (in assay [6]; in [7]; against Cathepsin G) was “Not Active” each time. The Ki entry in [4] and in [5] was “Not Active” each time.
Turning to `CC[C@]1(O)C[C@@H]2CN(CCc3c([nH]c4ccccc34)[C@@](C(=O)OC)(c3cc4c(cc3OC)N(C)[C@H]3[C@@](O)(C(=O)OC)[C@H](OC(C)=O)[C@]5(CC)C=CCN6CC[C@]43[C@@H]65)C2)C1` [VINBLASTINE], the IC50 result (in assay [1]; in assay [2]; in assay [3]; in assay [4]; in [5]; against Carbonic anhydrase 2 (erythrocyte)) was “Not Active” throughout. Further, the half-inhibitory concentration (IC50) result (in assay [6]; in assay [7]; against Cathepsin G) was “Not Active” throughout. For the same molecule, the Ki result in assay [4] and in assay [5] was “Not Active” in each case.
Consider `CC(=O)CC(c1ccccc1)c1c(O)c2ccccc2oc1=O` (configuration not stated) [WARFARIN], for which the half-maximal inhibitory concentration (IC50) result (in assay [1]; in assay [2]; in assay [3]; in assay [4]; in [5]; on Carbonic anhydrase 2 (erythrocyte)) was “Not Active” throughout. Moreover, the IC50 entry (in [6]; in assay [7]; on Cathepsin G) was “Not Active” in each case. Besides, the Ki result in assay [4] and in assay [5] was “Not Active” throughout.
With `C[C@@H](N)[C@H]1CC[C@H](C(=O)Nc2ccncc2)CC1` [Y-27632], the IC50 entry (in assay [1]; in [2]; in [3]; in assay [4]; in [5]; at Carbonic anhydrase 2 (erythrocyte)) was “Not Active” throughout. Also, the IC50 entry (in [6]; in assay [7]; against Cathepsin G) was “Not Active” each time. Moreover, the Ki entry in [4] and in [5] was “Not Active” each time.
For `[Cl-].[Cl-].[Zn+2]` [ZINC CHLORIDE], the half-inhibitory concentration (IC50) result in assay [1] was “Not Active”; in [2] it was “Not Active”; in assay [3] it was “Not Active”; in assay [4] it was “Not Active”; in [5] it was “Not Active”; at Carbonic anhydrase 2 (read-out: IC50) it was 1160 nM. Also, the IC50 entry (in [6]; in assay [7]; against Cathepsin G) was “Not Active” in each case. Moreover, the Ki entry in [4] and in assay [5] was “Not Active” throughout.
